Experimental data from the SangsterLogP compilation.

Compound	logP
CCCCCCCCC(=O)O	3.42
CCCCCCC(=O)O	2.42
O=C1c2ccccc2C(=O)C1c1cccc(Cl)c1	3.61
O=C(O)c1cc([N+](=O)[O-])ccc1O	1.98
Cc1ccc(C(=O)O)c(C)c1	3.01
O=[N+]([O-])c1cc(Cl)c(O)c(Cl)c1	2.96
Cc1cc(C)c(C)c(C(=O)O)c1C	4.19
Cc1cc(C)c(C(=O)O)c(C)c1	3.69
Cc1cc(C)cc(C2C(=O)c3ccccc3C2=O)c1	4.02
CCCCCCc1ccc(CC(=O)O)cc1	4.25
O=C(O)CCCCCC(=O)O	0.61
O=C(O)Cc1ccc([N+](=O)[O-])cc1	1.54
CC(C)(C)c1cc(C2C(=O)c3ccccc3C2=O)cc(C(C)(C)C)c1	6.86
COc1cccc(C2C(=O)c3ccccc3C2=O)c1	2.88
CCCCc1ccc(CC(=O)O)cc1	3.25
CCCc1ccc(CC(=O)O)cc1	2.75
CCCCCCCCc1ccc(C2C(=O)c3ccccc3C2=O)cc1	6.93
COc1ccc(C2C(=O)c3ccccc3C2=O)cc1	2.88
O=C1c2ccccc2C(=O)C1c1ccc(Br)cc1	3.76
CCCCCCCCCCC(=O)O	4.42
CCc1cc(CC)cc(C2C(=O)c3ccccc3C2=O)c1	4.94
O=C(O)Cc1ccc(I)cc1	2.53
CCCCCCCCCCCC(=O)O	4.92

Compound	logP
CCCCCc1ccc(CC(=O)O)cc1	3.75
O=C1c2ccccc2C(=O)C1c1cccc(C(F)(F)F)c1	3.78
O=C(O)Cc1ccc(C2CCCCC2)cc1	3.81
CCC(C)(C)c1ccc(CC(=O)O)cc1	3.48
O=C(O)Cc1ccc(C2CCCC2)cc1	3.44
CC(C)c1cc(C(C)C)cc(C2C(=O)c3ccccc3C2=O)c1	5.96
O=C1c2ccccc2C(=O)C1c1ccc(Cl)cc1	3.61
O=[N+]([O-])c1cc(Br)c(O)c(Br)c1	3.07
CCCOc1ccc(CC(=O)O)cc1	2.31
COc1cc(OC)cc(C2C(=O)c3ccccc3C2=O)c1	2.86
CC(C)(C)c1cccc(C2C(=O)c3ccccc3C2=O)c1	4.88
O=C(O)Cc1ccccc1	1.41
Cc1cccc(C2C(=O)c3ccccc3C2=O)c1	3.46
CC(C)c1cccc(C2C(=O)c3ccccc3C2=O)c1	4.43
CC(C)(C)c1ccc(C2C(=O)c3ccccc3C2=O)cc1	4.88
CCc1cccc(C2C(=O)c3ccccc3C2=O)c1	3.92
O=C1c2ccccc2C(=O)C1c1ccc(-c2ccccc2)cc1	4.79
Cc1ccc(C2C(=O)c3ccccc3C2=O)cc1	3.46
O=C1c2ccccc2C(=O)C1c1cc(Cl)cc(Cl)c1	4.32
CC(C)c1ccc(C2C(=O)c3ccccc3C2=O)cc1	4.43
CCc1ccc(C2C(=O)c3ccccc3C2=O)cc1	3.92
O=C1c2ccccc2C(=O)C1c1ccc(C(F)(F)F)cc1	3.78
